In brackets after ≈: the same amount, converted by molar mass.

One may read the MIC50 as the lowest concentration that inhibits either 50% of growth or 50% of the strains tested, depending on the study. A word on the melting point: it is the temperature of the solid-liquid transition. By remaining activity is commonly meant the share of the control activity or signal that is left under treatment. As usually defined, the IC50 is the concentration that gives 50% inhibition.

Series [1] has as its system Mycobacterium tuberculosis H37Rv. In words: Minimum inhibitory concentration for Mycobacterium tuberculosis H37Rv strain (Table A). In kind it is cell-based. The settings on record: for MIC / MIC50: Mycobacterium tuberculosis, Strain Mtb H37Rv.
The target of another series is Mtb Ag85C (Mycobacterium tuberculosis, UniProt P9WQN9). The experiment in a line: Fluorometric resorufin butyrate/trehalose assay of Mtb Ag85C activity. It is filed as biochemical. The settings on record: for remaining activity at 5 µM: 5 μM compound, 40 min of incubation, normalized to control without inhibitor, read-out: Percent of Mtb Ag85C activity remaining.
Mtb Ag85C, sequence (P9WQN9 46-340 limits assumed): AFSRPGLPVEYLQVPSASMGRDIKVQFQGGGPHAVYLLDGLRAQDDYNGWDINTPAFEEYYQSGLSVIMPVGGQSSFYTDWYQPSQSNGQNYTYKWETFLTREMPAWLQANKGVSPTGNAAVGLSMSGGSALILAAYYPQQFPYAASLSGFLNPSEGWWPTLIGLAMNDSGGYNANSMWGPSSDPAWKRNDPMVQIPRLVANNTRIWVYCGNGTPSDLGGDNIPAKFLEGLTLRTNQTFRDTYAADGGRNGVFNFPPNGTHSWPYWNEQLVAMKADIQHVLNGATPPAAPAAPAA
Another series has as its system Mtb H37Rv. In words: microbe, parasite or virus in culture. In kind it is cell-based. The conditions noted are these: Mycobacterium tuberculosis, MABA.
In another series the target is Ag85C (Mycobacterium tuberculosis, UniProt P9WQN9). In words: Activity of Ag85C modified by compounds over time (FIGS. 6A-6B). It is filed as biochemical. From the text:
FIGS. 6A-6B: Activity of Ag85C modified by compounds 506e (FIG. 6A) and 506f (FIG. 6B) over time.
FIGS. 6A-6B show the activity of Ag85C modified by compounds 506e and 506f over time.

In series [2] the test system is MRHF cells treated with TcdB and TcdA. In words: Cytotoxicity assay: inhibition of toxin-induced cell rounding. In kind it is cell-based, human. The conditions noted are these: 0.05 mL of 40 μM compound mixed with 0.05 mL TcdB and TcdA solution, 30 min; MRHF cells 2 h. How it is done:
Cytotoxicity data was collected using a qualitative assay designed by Quidel to detect TcdB and TcdA presence in patients' stool samples. A solution containing TcdB and TcdA (0.05 mL) was mixed with 0.05 mL of a 40 μM solution of compounds of example 1-15 individually. These solutions were then incubated together for thirty minutes at room temperature. Then the 0.1 ml solutions were used to treat MRHF cells in a twenty four well plate. The cells were then incubated at thirty degrees Celsius under CO2 for two hours. Then, the cells were imaged using a 20× objective on an inverted microscope. […] Thus, compound 506o provides cytoprotection against Clostridium difficile toxins TcdB and TcdA.

Ag85C, sequence (P9WQN9 46-340): as the sequence (P9WQN9 46-340 limits assumed) above

Regarding `COc1ccc(Cn2[se]c3ccccc3c2=O)cc1` [Compound 506a, 2-(4-methoxybenzyl)benzo[d][1,2]selenazol-3(2H)-one], in series [1], the MIC was 25 µg/mL (≈ 78.6 µM) and the MIC50 stood at 18.3 µg/mL (≈ 57.6 µM).

Regarding `COc1ccccc1Cn1[se]c2ccccc2c1=O` [Compound 506c, 2-(2-methoxybenzyl)benzo[d][1,2]selenazol-3(2H)-one], the melting point lay in the range of 169 to 170 °C. In addition, on Mtb Ag85C, the remaining activity at 5 µM was determined as 36%. Also, in series [1], the “MIC values against Mycobacterium tuberculosis compared with ebselen” value is listed as “lower than ebselen”, the MIC came out at 12.5 µg/mL (≈ 39.3 µM) and the MIC50 turned out to be 10.4 µg/mL (≈ 32.6 µM). In addition, the MIC against Mtb H37Rv was 12.5 µg/mL (≈ 39.3 µM).

Take `C=CCn1[se]c2ccccc2c1=O` [Compound 506e, 2-allylbenzo[d][1,2]selenazol-3(2H)-one]: the remaining activity at 5 µM at Mtb Ag85C came out at 15%. For the same molecule, on Mtb Ag85C (15 min of incubation, read-out: Apparent IC50 (appIC50) against Mtb Ag85C), the IC50 came out at 8.8 µM. Further, the “Activity of Ag85C modified by compound over time” value at Ag85C is on record as “decrease in the activity of Ag85C”. Besides, in series [1], the “MIC values against Mycobacterium tuberculosis compared with ebselen” value is recorded as “lower than ebselen”, the MIC amounted to 12.5 µg/mL (≈ 52.5 µM) and the MIC50 turned out to be 10.4 µg/mL (≈ 43.5 µM). In the series with Mtb H37Rv, this molecule yielded an MIC of 12.5 µg/mL (≈ 52.5 µM).

In turn, `CC(C)Cn1[se]c2ccccc2c1=O` yielded a melting point of 114 to 116 °C.

In turn, `[N-]=[N+]=Nc1ccc(-n2[se]c3ccccc3c2=O)cc1` returned a melting point of 169 to 170 °C.

Take `O=c1c2ccccc2[se]n1-c1ccccn1` [Compound 506o, 2-(Pyridin-2-yl)benzo[d][1,2]selenazol-3(2H)-one]: in series [2], the “Inhibition of cell rounding (cell appearance)” value is recorded as “more intermediate phenotype”.

For the molecule `O=c1c2ccccc2[se]n1C1CCCC1` [Compound 506l, 2-Cyclopentylbenzo[d][1,2]selenazol-3(2H)-one], the melting point was 119 to 120 °C. Moreover, the remaining activity at 5 µM on Mtb Ag85C is 40%.

In series [1], `COc1ccc(-n2[se]c3ccccc3c2=O)cc1` [Compound 506b, 2-(4-methoxyphenyl)benzo[d][1,2]selenazol-3(2H)-one] yielded an MIC of 25 µg/mL (≈ 82.2 µM) and an MIC50 of 19.3 µg/mL (≈ 63.4 µM).

On to `[N-]=[N+]=Nc1ccc(NC(=O)c2ccccc2[Se]C#Cc2ccccc2)cc1` [Compound 208, N-(4-Azidophenyl)-2-((phenylethynyl)selanyl)-benzamide], for which the MIC with Mtb H37Rv is not below 50 µg/mL.

For `O=c1c2ccccc2[se]n1Cc1ccccc1` [Compound 506d, 2-benzylbenzo[d][1,2]selenazol-3(2H)-one], in series [1], the MIC stood at 25 µg/mL (≈ 86.7 µM) and the MIC50 is 15 µg/mL (≈ 52.2 µM).

For `O=c1c2ccccc2[se]n1C1CCCCC1` [Compound 506m, 2-Cyclohexylbenzo[d][1,2]selenazol-3(2H)-one], the remaining activity at 5 µM on Mtb Ag85C was determined as 44%.

For the molecule `O=c1c2ccccc2[se]n1CC1CCCCC1` [Compound 506f, 2-(cyclohexylmethyl)benzo[d][1,2]selenazol-3(2H)-one], the remaining activity at 5 µM at Mtb Ag85C was found to be 30%. Besides, the “Activity of Ag85C modified by compound over time” value at Ag85C is reported as “decrease in the activity of Ag85C”. In series [1], this molecule showed an MIC of 50 µg/mL (≈ 170 µM) and an MIC50 of 36.2 µg/mL (≈ 123 µM). This molecule also had an MIC with Mtb H37Rv not below 50 µg/mL.

Take `CC(C)(C)n1[se]c2ccccc2c1=O`: the melting point is 137 to 139 °C.

Turning to `O=c1c2ccccc2[se]n1C12CC3CC(CC(C3)C1)C2`, the melting point lay in the range of 215 to 217 °C.

For `O=C(CCCCC1SC[C@@H]2NC(=O)N[C@H]12)NCCOCCOCCOCCNC(=O)CCC(=O)N1Cc2ccccc2-c2nnn(-c3ccc(-n4[se]c5ccccc5c4=O)cc3)c2-c2ccccc21` (stereo partly drawn) [Compound 210, N-(13,16-dioxo-16-(3-(4-(3-oxobenzo[d][1,2]selenazol-2(3H)-yl)phenyl)-3,9-dihydro-8H-dibenzo[b,f][1,2,3]triazolo[4,5-d]azocin-8-yl)-3,6,9-trioxa-12-azahexadecyl)-5-((3aS,6aR)-2-oxohexahydro-1H-thieno[3,4-d]imidazol-4-yl)pentanamide], the remaining activity at 5 µM on Mtb Ag85C came out at 61%. For the same molecule, in the series on Mtb H37Rv, the MIC was not below 50 µg/mL.

As to `O=c1c2ccccc2[se]n1-c1ccccc1` [Ebselen, 2-phenyl-1,2-benzisoselenazol-3(2H)-one, reference compound], the “Inhibition of cell rounding (cell appearance)” value in series [2] is on record as “maintained their string-like appearance”. On Mtb Ag85C, the remaining activity at 5 µM is 17%. In series [1], this molecule showed an MIC of 12.5 µg/mL (≈ 45.6 µM) and an MIC50 of 9.59 µg/mL (≈ 35 µM). The MIC in the series on Mtb H37Rv came to 12.5 µg/mL (≈ 45.6 µM).

Values taken from patent publication US11053236B2, “Substituted isoselenazolone anti-infective, anti-inflammatory, anti-cancer, cytoprotective, neuroprotective, and anti-oxidant agents” (priority 2016, dated 2021).
